# Laboratory results published in patent US20250235486A1, “Method of Producing Insulin-Producing Cells” (Monash University, priority 2022, published 2025).
# How the values were obtained:
# [1] = system: human exocrine (acinar and ductal) cells; assay: qRT-PCR gene expression in human exocrine (acinar and ductal) cells from a non-diabetic donor; assay type: cell-based; settings: 48 hours: GSK126 10 μM, CPI-1205 5 μM, ursolic acid 5 μM, GSK343 5 μM, EPZ-6438 5 μM
# Protocol: (§1) Exocrine cells from a non-diabetic human and a marmoset were cultured and assayed in Miami/CMRL medium. The human exocrine cells were sourced from the Islet Transplant Unit of St Vincent's Institute for Medical Research. The marmoset exocrine cells were sourced from the Australian Regenerative Medicine Institute (ARMI), Monash University. Miami media is based on CMRL 1066 media (Connaught Medical Research Lab) supplemented with: Insulin, Transferrin & Selenium (ITS), human serum, Vitamin E, sodium pyruvate, zinc and HEPES. Pharmacological inhibition of EZH2 and gene expression analysis were performed as described in Example 1.
# [2] = system: H3K27me3 or H3K9/14ac content at the promoters of INS-IGF2, NGN3 and PDX1 in human pancreatic ductal epithelial cells; assay: Quantitative PCR chromatin immunoprecipitation (q-PCR ChIP) after 2- and 7-day stimulation; assay type: cell-based; settings: 7 days (FIG. 12c)
# Protocol: Approximately 5×10^6 cells were fixed in 1% formaldehyde for 10 minutes, with a further 10-minute incubation in 0.125M glycine to quench the cross-linking reaction. The fixed cell pellet was lysed following resuspension and homogenization in sodium dodecyl (lauryl) sulphate (SOS) lysis buffer (1% SOS, 10 mM EDTA, 50 mM Tris-HCl pH 8.1) with a protease inhibitor cocktail (Roche Diagnostics GmBH, Mannheim, Germany) included. Samples were incubated on ice for 5 minutes following which sonication was performed to shear chromatin between 200-600 bp. Sonicated chromatin was resuspended in ChIP Dilution Buffer (0.01% SOS, 1.1% Triton X-100, 1.2 mM EDTA, 16.7 mM Tris-HCl pH 8.0 and 167 mM NaCl). 20 μl of DynabeadsR Protein A (Invitrogen, Carlsbad, CA, USA) was added to each sample and pre-cleared. Overnight incubation at 4° C. with H3K27me3 or H3K9/14ac antibody was used for immunoprecipitation of chromatin, as previously described. Immunoprecipitates were collected by magnetic isolation and washed sequentially with low salt and high salt buffers. Immunoprecipitated DNA was then eluted from solution with 0.1 M NaHCO3 containing 1% SIDS. Protein-DNA cross-links were reversed by incubation of samples in Proteinase K (Sigma, St. Louis, MO, USA) for 2 hours at 62° C. DNA was purified using a Qiagen MinElute column (Qiagen Inc., Valencia, CA, USA). H3K27me3 or H3K9/14ac content at the promoters of the INS-IGF2, NGN3 and PDX1 genes were assessed by qPCR using primers designed from the integrative ENCODE resource.
# EZH2 = target: T1, EZH2 (Homo sapiens, UniProt Q15910); settings: assay of methylation activity as described in the cited paper for each compound; cited from earlier work
# T1 construct: Flag
# [3] = system: Human pancreatic ductal epithelial cells; assay: qRT-PCR after 2- and 7-day EZH2 inhibitor stimulation of human pancreatic ductal epithelial cells; assay type: cell-based; settings: GSK-126 10 μM, Triptolide 20 nM
# Protocol: Human pancreatic ductal epithelial cells were purchased from AddexBio and cultured according to the recommended protocols. Cells were cultured in complete Keratinocyte Serum-Free Media (supplemented with human recombinant EGF, Bovine Pituitary Extract and Antibiotic-Antimycotic [Gibco]. All cell cultures were grown and maintained in a 37° C., 5% C02 environment using a tissue culture incubator. Once cells reached 70-80% confluency, passaging was performed using 0.05% Trypsin EDTA (Sigma). […] Vehicle control was DMSO. Cells were treated over 2 main timepoints, with harvests occurring following 2, and 7 days. For the 2-day time point, cells were seeded and left to adhere in plates for 24 hours. Treatment was initiated with the first dose made up in complete K-SFM. The second dose was delivered 24 hours later following a media change. For the longer period of 7 days, cells were initially seeded in 10 cm plates, with doses delivered on alternate days following the initial period of 24 hours. […] Ct values of experimental genes were normalized to housekeeping gene [MUT]. Fold change of mRNA abundance was calculated by normalizing drug treated values to vehicular controls. […] RNA was isolated using the RNeasy Kit according to the manufacturer's directions. Following measurement of RNA concentration using a QIAxpert System, 1 μg of RNA was used for cDNA synthesis by a high-capacity cDNA Reverse Transcription Kit (Applied Biosystems). The resulting cDNA reaction mix was diluted 1:6 to make up the final template cDNA used subsequently. […] Ct values of experimental genes were normalized to housekeeping gene [MUT]. Fold change of mRNA abundance was calculated by normalizing drug treated values to vehicular controls.
# [4] = system: Human pancreatic ductal epithelial cells; assay: Glucose stimulated insulin secretion assay (ELISA); assay type: cell-based
# Protocol: 5×10^5 cells were seeded in 12-well plates and allowed to adhere for 24 hours. […] Next, cells were cultured in 28 mM (High) glucose Krebs Buffer solution and incubated for 1 hour to obtain the glucose stimulated insulin secretion. Supernatant was collected and Ultrasensitive Insulin ELISA (Mercodia) was used to determine the concentration of insulin according to manufacturer's instructions. Fold change of insulin secreted by cells were calculated by adjusting to cells stimulated with EZH2 inhibitors for insulin concentrations compared to control.
# [5] = system: Human immortalised ductal cell line; assay: qRT-PCR gene expression in human immortalised ductal cell line; assay type: cell-based; settings: ursolic acid 1, 2.5 or 5 μM; GSK126 5, 10 or 20 μM
# Protocol: Human immortalised ductal cell line (Catalog #: T0018001, Addexbio) was cultured and assayed in Keratinocyte SFM (serum-free medium) (Catalog number 17005042, ThermoFisher Scientific, USA). Pharmacological inhibition of EZH2 and gene expression analysis were performed as described in Example 1.
# [6] = system: marmoset exocrine (acinar and ductal) cells; assay: qRT-PCR gene expression in marmoset exocrine (acinar and ductal) cells; assay type: cell-based; settings: 48 hours: GSK126 10 μM, ursolic acid 5 μM
# Protocol: as §1
# T1 sequence (Q15910 whole entry): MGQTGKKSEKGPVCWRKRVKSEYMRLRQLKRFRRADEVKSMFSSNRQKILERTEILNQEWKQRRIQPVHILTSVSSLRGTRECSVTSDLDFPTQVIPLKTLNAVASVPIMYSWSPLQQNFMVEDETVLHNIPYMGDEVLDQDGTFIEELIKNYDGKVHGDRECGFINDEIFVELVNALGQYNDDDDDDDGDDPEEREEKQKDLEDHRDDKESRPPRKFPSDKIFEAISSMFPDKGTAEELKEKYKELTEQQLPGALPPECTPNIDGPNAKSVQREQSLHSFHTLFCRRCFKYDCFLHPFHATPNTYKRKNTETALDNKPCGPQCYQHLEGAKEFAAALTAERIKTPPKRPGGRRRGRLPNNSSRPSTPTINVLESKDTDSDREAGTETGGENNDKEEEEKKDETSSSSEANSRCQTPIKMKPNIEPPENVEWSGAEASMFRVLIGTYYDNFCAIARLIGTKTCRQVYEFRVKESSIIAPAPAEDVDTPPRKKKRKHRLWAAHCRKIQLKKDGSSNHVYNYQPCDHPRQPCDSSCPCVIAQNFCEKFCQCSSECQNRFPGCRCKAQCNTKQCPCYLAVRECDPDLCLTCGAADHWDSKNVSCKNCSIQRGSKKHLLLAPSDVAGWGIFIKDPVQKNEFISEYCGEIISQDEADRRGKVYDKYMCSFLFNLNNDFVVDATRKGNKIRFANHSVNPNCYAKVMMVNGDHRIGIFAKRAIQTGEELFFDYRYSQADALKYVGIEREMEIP
# T1 sequence (O75530 whole entry partner): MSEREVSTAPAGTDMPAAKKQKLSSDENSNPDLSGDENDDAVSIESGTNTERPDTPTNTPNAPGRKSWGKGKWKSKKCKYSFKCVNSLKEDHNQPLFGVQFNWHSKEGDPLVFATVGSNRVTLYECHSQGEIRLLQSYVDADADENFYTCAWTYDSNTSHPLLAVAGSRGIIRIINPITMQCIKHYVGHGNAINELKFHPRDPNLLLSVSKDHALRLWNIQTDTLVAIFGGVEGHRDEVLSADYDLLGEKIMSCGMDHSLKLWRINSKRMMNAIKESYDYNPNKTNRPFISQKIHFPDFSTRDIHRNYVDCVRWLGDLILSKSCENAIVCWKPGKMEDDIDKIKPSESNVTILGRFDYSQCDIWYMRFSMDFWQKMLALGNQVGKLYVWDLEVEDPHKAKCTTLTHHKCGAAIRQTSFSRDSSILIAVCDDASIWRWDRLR
# T1 sequence (Q15022 whole entry partner): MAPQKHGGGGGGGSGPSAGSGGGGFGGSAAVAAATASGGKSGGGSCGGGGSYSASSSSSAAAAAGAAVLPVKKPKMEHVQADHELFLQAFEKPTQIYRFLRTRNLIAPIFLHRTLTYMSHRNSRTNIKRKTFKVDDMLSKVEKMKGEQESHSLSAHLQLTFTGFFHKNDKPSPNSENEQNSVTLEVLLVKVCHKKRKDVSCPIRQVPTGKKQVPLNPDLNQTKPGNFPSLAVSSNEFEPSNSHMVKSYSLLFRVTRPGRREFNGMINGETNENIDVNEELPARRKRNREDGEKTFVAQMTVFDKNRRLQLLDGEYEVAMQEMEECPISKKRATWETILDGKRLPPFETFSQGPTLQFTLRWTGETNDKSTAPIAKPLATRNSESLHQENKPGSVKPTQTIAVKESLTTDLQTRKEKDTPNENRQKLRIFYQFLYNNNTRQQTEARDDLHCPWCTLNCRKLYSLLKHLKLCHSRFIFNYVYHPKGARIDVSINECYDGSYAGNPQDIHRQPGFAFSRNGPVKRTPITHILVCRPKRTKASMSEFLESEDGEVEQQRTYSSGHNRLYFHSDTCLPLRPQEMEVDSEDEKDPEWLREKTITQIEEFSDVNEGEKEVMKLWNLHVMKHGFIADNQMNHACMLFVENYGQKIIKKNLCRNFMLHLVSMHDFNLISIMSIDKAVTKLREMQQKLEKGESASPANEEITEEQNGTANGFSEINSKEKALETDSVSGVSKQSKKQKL
# T1 sequence (Q6ZN18 whole entry partner): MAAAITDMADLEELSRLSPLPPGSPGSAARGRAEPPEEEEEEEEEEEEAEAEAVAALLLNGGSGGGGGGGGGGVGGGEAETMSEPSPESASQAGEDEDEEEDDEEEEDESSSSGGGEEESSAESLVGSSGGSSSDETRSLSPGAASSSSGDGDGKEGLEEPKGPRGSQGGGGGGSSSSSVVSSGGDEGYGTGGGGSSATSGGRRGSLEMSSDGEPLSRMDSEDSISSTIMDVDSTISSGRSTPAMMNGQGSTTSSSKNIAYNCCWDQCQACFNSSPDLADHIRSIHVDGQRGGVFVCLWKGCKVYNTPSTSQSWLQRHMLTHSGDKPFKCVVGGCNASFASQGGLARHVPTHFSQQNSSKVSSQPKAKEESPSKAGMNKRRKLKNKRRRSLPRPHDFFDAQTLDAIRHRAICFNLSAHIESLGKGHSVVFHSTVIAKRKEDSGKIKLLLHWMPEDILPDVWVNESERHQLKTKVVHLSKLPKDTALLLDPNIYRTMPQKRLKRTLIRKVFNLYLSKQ
# T1 sequence (Q09028 whole entry partner): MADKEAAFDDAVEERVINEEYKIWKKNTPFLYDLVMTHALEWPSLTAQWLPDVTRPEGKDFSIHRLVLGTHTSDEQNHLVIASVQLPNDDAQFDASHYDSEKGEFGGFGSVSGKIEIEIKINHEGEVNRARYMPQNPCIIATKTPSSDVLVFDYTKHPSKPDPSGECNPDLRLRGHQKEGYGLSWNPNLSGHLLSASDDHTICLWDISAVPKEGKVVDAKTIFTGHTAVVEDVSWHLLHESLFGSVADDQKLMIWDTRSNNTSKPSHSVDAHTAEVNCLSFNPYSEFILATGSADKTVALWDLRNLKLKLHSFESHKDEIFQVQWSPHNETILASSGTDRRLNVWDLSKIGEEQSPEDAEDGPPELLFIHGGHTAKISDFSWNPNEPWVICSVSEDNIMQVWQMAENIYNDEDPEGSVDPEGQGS
structure (smiles),measurement,setting,value
"COc1cc(C)[nH]c(=O)c1CNC(=O)c1c(C)n([C@H](C)C2CCN(CC(F)(F)F)CC2)c2ccccc12 [CPI-1205, N-[(1,2-Dihydro-4-methoxy-6-methyl-2-oxo-3-pyridinyl)methyl]-2-methyl-1-[(1R)-1-[1-(2,2,2-trifluoroethyl)-4-piperidinyl]ethyl]-1H-indole-3-carboxamide]","mRNA expression of Insulin, Pdx1 and Ngn3",[1],"stimulated expression of one, two or all of Insulin, Pdx1 and Ngn3"
"CCN(c1cc(-c2ccc(CN3CCOCC3)cc2)cc(C(=O)NCc2c(C)cc(C)[nH]c2=O)c1C)C1CCOCC1 [EPZ-6438, N-[(1,2-Dihydro-4,6-dimethyl-2-oxo-3-pyridinyl)methyl]-5-[ethyl(tetrahydro-2H-pyran-4-yl)amino]-4-methyl-4′-(4-morpholinylmethyl)[1,1′-biphenyl]-3-carboxamide]","mRNA expression of Insulin, Pdx1 and Ngn3",[1],"stimulated expression of one, two or all of Insulin, Pdx1 and Ngn3"
same,H3K27me3 content of PDX1,[2],reduced
"CCCc1cc(C)[nH]c(=O)c1CNC(=O)c1cc(-c2ccnc(N3CCN(C)CC3)c2)cc2c1cnn2C(C)C [GSK343, N-[(1,2-Dihydro-6-methyl-2-oxo-4-propyl-3-pyridinyl)methyl]-1-(1-methylethyl)-6-[2-(4-methyl-1-piperazinyl)-4-pyridinyl]-1H-indazole-4-carboxamide]","mRNA expression of Insulin, Pdx1 and Ngn3",[1],"stimulated expression of one, two or all of Insulin, Pdx1 and Ngn3"
same,IC50,EZH2,4 nM
"CC(C)[C@]12O[C@H]1[C@@H]1O[C@]13[C@]1(O[C@H]1C[C@H]1C4=C(CC[C@@]13C)C(=O)OC4)[C@@H]2O [Triptolide, (3bS,4aS,5aS,6R,6aR,7aS, 7bS,8aS,8bS)-3b,4,4a,6,6a,7a,7b,8b,9,10-Decahydro-6-hydroxy-8b-methyl-6a-(1-methylethyl)trisoxireno[4b,5: 6,7:8a,9]phenanthro[1,2-c]furan-1(3H)-one]",MAFA mRNA levels,[3]; 2-day point,increased in a statistically significant manner
same,CK19 expression,"[3]; 2 days, EPZ6438 1 μM",statistically significant decreases
same,NGN3 mRNA levels,"[3]; 2 days, EPZ6438 1 μM",significantly elevated
same,"insulin transcripts, mature mRNA (INS)","[3]; 2 days, EPZ6438 1 μM",elevations
same,"insulin transcripts, unprocessed heterogenous nuclear form (INS hnRNA)","[3]; 2 days, EPZ6438 1 μM",elevations
same,NGN3 mRNA levels,"[3]; 7 days, EPZ6438 1 μM",Further increases
same,"insulin transcripts, mature mRNA (INS)","[3]; 7 days, EPZ6438 1 μM",even further increases
same,"insulin transcripts, unprocessed heterogenous nuclear form (INS hnRNA)","[3]; 7 days, EPZ6438 1 μM",even further increases
same,"insulin concentration after incubation in high-glucose media (28 mM glucose, 1 hour)","[4]; 2-day stimulation (FIG. 13d), GSK126 10 μM, EPZ6438 1 μM, Triptolide 20 nM, not observed in DMSO control",significant elevations
same,Release of insulin (glucose stimulated),[4]; 7 days stimulation (FIG. 13e),maintained
"C[C@H]1[C@H](C)CC[C@]2(C(=O)O)CC[C@]3(C)C(=CC[C@@H]4[C@@]5(C)CC[C@H](O)C(C)(C)[C@@H]5CC[C@]43C)[C@H]12 [Ursolic acid, 3β-Hydroxyurs-12-en-28-oic acid]",Insulin mRNA expression,[5],stimulated expression
same,Ngn3 mRNA expression,[5],stimulated expression
same,Pdx1 mRNA expression,[5],stimulated expression
same,"mRNA expression of Insulin, Pdx1 and Ngn3",[1],"stimulated expression of one, two or all of Insulin, Pdx1 and Ngn3"
same,Insulin mRNA expression,[6],stimulated expression
same,Pdx1 mRNA expression,[6],stimulated expression
